Test results published in patent US7988952B2, “Delivery of drug esters through an inhalation route” (Alexza Pharmaceuticals, Inc., priority 2001, dated 2011).

Columns and labels:
[1] = Volatilization from halogen bulb; purity of the aerosol by reverse-phase HPLC; format: physicochemical; conditions: thermal vapor from coated aluminum foil on 300 watt halogen tube, 60 V 5-12 s or 90 V 2.5-3.5 s; HPLC at 225 nm
Description: A solution of drug in approximately 120 μL dichloromethane is coated on a 3.5 cm×7.5 cm piece of aluminum foil (precleaned with acetone). The dichloromethane is allowed to evaporate. The coated foil is wrapped around a 300 watt halogen tube (Feit Electric Company, Pico Rivera, Calif.), which is inserted into a glass tube sealed at one end with a rubber stopper. Running 60 V of alternating current (driven by line power controlled by a variac) through the bulb for 5-12 s or 90 V for 2.5-3.5 s affords thermal vapor (including aerosol), which is collected on the glass tube walls. (When desired, the system is flushed through with argon prior to volatilization.) Reverse-phase HPLC analysis with detection by absorption of 225 nm light is used to determine the purity of the aerosol.
Table 1, which follows, provides data from drugs volatilized using the above-recited general procedure.

[2] = Hydrolysis studies of drug esters in PBS solution (pH 7.5); format: physicochemical; conditions: PBS pH 7.5, room temperature, read-out: t1/2 for hydrolysis
Description: Drug ester (20 μL, 10 mM acetonitrile) is added to 1 mL PBS solution (pH 7.5) at room temperature. At intermittent time points, an aliquot of the resulting mixture is injected into an HPLC to obtain the ratio of drug ester to drug acid or drug alcohol. An Arrhenius plot of the data provides a t1/2 for hydrolysis.

[3] = Human serum hydrolysis studies of drug esters; format: in vitro ADME; conditions: 37° C., read-out: t1/2 for hydrolysis
Description: Human serum (2.34 mL) is placed in a test tube. To the serum is added 260 μL of a 10 mM solution of drug ester in acetonitrile. The tube is placed in a 37° C. incubator, and at various time points a 500 μL aliquot is removed. The aliquot is mixed with 500 μL methanol, and the mixture is vortex mixed and centrifuged. A sample of the supernatant is analyzed by HPLC obtain the ratio of drug ester to drug acid or drug alcohol. An Arrhenius plot of the data provides a t1/2 for hydrolysis.

half-life at 0.196 mM [2] [h] | half-life at 1 mM [3] [h] | Compound | AEROSOL PURITY [1] [%]
– | – | CC(=O)Oc1ccc2c(c1OC(C)=O)-c1cccc3c1C(C2)N(C)CC3.Cl (stereo not drawn) [Apomorphine Diacetate-HCl] | 94
– | – | CCOC(=O)Cc1c(C)n(C(=O)c2ccc(Cl)cc2)c2ccc(OC)cc12 [Indomethacin Ethyl Ester] | >99
– | – | COC(=O)Cc1c(C)n(C(=O)c2ccc(Cl)cc2)c2ccc(OC)cc12 [Indomethacin Methyl Ester] | 99
– | – | COc1ccc2c(c1)c(CC(=O)OCCN(C)C)c(C)n2C(=O)c1ccc(Cl)cc1 [Indomethacin Norcholine Ester] | 100
> 48 | 3.73 | CCOC(=O)C(C)c1cccc(C(=O)c2ccccc2)c1 (stereo not drawn) [Ketoprofen Ethyl Ester] | 99.65
> 48 | 2.4 | COC(=O)C(C)c1cccc(C(=O)c2ccccc2)c1 (stereo not drawn) [Ketoprofen Methyl Ester] | 99
– | – | CC(C(=O)OCCN(C)C)c1cccc(C(=O)c2ccccc2)c1 (stereo not drawn) [Ketoprofen Norcholine Ester] | 100
– | – | CCOC(=O)C1CCn2c(C(=O)c3ccccc3)ccc21 (stereo not drawn) [Ketorolac Ethyl Ester] | >99
– | – | COC(=O)C1CCn2c(C(=O)c3ccccc3)ccc21 (stereo not drawn) [Ketorolac Methyl Ester] | 100
– | – | CN(C)CCOC(=O)C1CCn2c(C(=O)c3ccccc3)ccc21 (stereo not drawn) [Ketorolac Norcholine Ester, 2-(N,N-Dimethylamino)Ethyl Ester of Ketorolac] | 100
– | – | Apomorphine Diacetate | 96.9
